# Tests used:
# [1] = Quantum yield of fluorescence, metal free and Zn^2+ bound ligand; assay type: physicochemical; details: 50 mM PIPES, 100 mM KCl
# Source text: Quantum yield, Φ, may be obtained by comparison of the integrated area of the corrected emission spectrum of the sample with that of a reference solution. A preferred reference solution is a solution of fluorescein in 0.1 N NaOH, quantum efficiency 0.95. The concentration of the reference is adjusted to match the absorbance, Abs, of the test sample. The quantum yields may be calculated using the following equation: […]
# The quantum yields of fluorescence were obtained by comparison of the integrated area of the corrected emission spectrum of the sample with that of a solution of fluorescein in 0.1 N NaOH, quantum efficiency 0.95. The concentration of the reference was adjusted to match the absorbance of the test sample. The quantum efficiency of the metal free ligand was measured using dilute sample of Formula 16 dye (˜1×10^−6 M, Abs≦0.1) in 10 mM PIPES, 100 mM KCl and 50 μM EDTA, pH=7.0. The quantum efficiency of the metal bound ligand was measured using a dilute sample of Formula 16 (˜8×10^−7 M, Abs≦0.1) in 10 mM PIPES, 100 mM KCl and 100 μM ZnCl2, pH=7.0. Emission for Formula 16 was integrated from 496 to 600 nm with excitation at 492 nm. The quantum yields were calculated with the following equation.
# (§1) Under pseudo physiological conditions (50 mM PIPES, 100 mM KCl) at pH 7 in the presence of EDTA to scavenge advantageous metal ions, Formula 16 has a quantum yield of 0.25. The quantum yield increases to 0.92 in the presence of 25 μM Zn^2+. The excitation maximum of Formula 16 shifts from 498 nm (ε=36.8×10^3 M^−1cm^−1) to 490 nm (ε=44.9×10^3 M^−1cm^−1) upon Zn^2+ complexation. The slight hypsochromatic shift in the absorption wavelength is indicative of the coordination of the donor group (phenol) to Zn^2+. Since the phenol is incorporated in the π-system of the fluorophore, coordination to a metal would be expected to perturb the electronic structure of the system and produce a shift in the excitation wavelength. […] Under most conditions, cadmium concentrations are much lower than zinc concentrations in biological samples.
# [2] = Excitation maximum and extinction coefficient, free and upon Zn^2+ complexation; assay type: physicochemical; details: pH 7
# Protocol: (§2) Absorption spectra were recorded on a Hewlett Packard 8453A diode array spectrophotometer under the control of a Pentium II-based PC running the Windows NT ChemStation software package, or a Cary 1E scanning spectrophotometer under the control of a Pentium PC running the manufacturer supplied software package. Spectra were routinely acquired at 25° C., maintained by a circulating water bath in 1 cm path length quartz cuvettes with a volume of 1.0 or 3.5 mL.
# as §1
# [3] = Fluorescence Zn^2+ binding titration (Kd) in Ca^2+/EDTA/Zn^2+ buffers; details: 1 mM EDTA, 2 mM Ca^2+, 0–1 mM total Zn^2+
# Protocol: The first Kd associated with Zn^2+ binding was measured by a fluorescence titration as described previously. Spectra of the fluorescence of the ligand of Formula 16 were acquired by exciting at 490 nm and collecting and integrating from 500–575 nm. The measurements were performed in triplicate to ensure accuracy of the Kd value.
# (§3) The fluorescent increase and binding affinity for Zn^2+ were characterized using a dual-metal single-ligand buffer system comprised of 1 mM EDTA, 2 mM Ca^2+ (or Mg^2+ up to 5 mM) and 0–1 mM total Zn^2+. […] The quantum yield of Formula 16 increases by ˜3.7-fold, and the integrated emission increases 6.0-fold.
# (§4) The Zn^2+ affinity of Formula 16 was determined by performing these measurements in triplicate using different Ca^2+/EDTA/Zn^2+ buffers (FIG. 3, left panel). The fluorescence response of the ligand of Formula 16 to the solutions was measured by excitation of the solution at 490 nm with 0.25 nm slit width and detecting the emission over 500 to 575 nm. The buffer solutions contained 100 mM KCl, 50 mM PIPES, pH=7.2 mM Ca2+, 1 mM EDTA and varying free Zn2+concentrations of 0, 0.172, 0.424, 0.787, 1.32, 2.11, 3.34, 5.60, 10.2, and 24.1 nM. […] The fluorescence response fits to a Hill coefficient of 1, consistent with the formation of a 1:1 ligand:Zn^2+ complex responsible for the enhancement.
# [4] = pH dependent fluorescence (apparent fluorescence pKa); assay type: physicochemical
# Protocol: The apparent fluorescence pKa was measured by plotting the integrated area of the emission spectrum against the pH recorded from pH=12.5–2.5. A 1 μM solution of the ligand of Formula 16 (10 mLs) containing ˜1 mM KOH and 100 mM KCl was adjusted to pH 12.5 and the UV-vis and fluorescence spectra were recorded. The pH was lowered in steps of ΔpH=0.5 with the addition of appropriate amounts of 6 N, 2 N, 0.5 N, 1 N, 0.1 N and 0.01 N HCl recording the absorption and emission spectra at each pH interval. The volume of the solution was controlled so the overall change in volume was <2%. Emission for the fluorescein-based ligand of […] was integrated from 500 to 700 nm. The resulting integrated emission areas were normalized, plotted against pH, and fit with the following nonlinear equation to calculate the pKa values. In the equation, ΔF1max and ΔF2max are the maximum fluorescence changes associated with the corresponding pKa values at the pH at which the maximum occurs.
# The fluorescence of the Formula 16 ligand is enhanced by protons. […] At high pH, the magnitude of Zn^2+-induced fluorescent enhancement is more dramatic, increasing over 200-fold at pH 12.
# [5] = Absorption titration, second Zn^2+ binding event (Kd2); details: physiologically relevant pH
# Protocol: as §2
# The binding of Zn^2+ by a fluorescein-based ligand of Formula 16 is accompanied by changes in the absortion spectra. […] Addition of greater than one equivalent of Zn^2+ produces small changes in the absorption spectra of the ligand. The change fits to a Kd2 of 10±2 μM (486 nm), and decreases to 7.5±2.5 μM (508 nm).
# [6] = Fluorescence response to other metal ions
# Protocol: (§5) Fluorescence spectra were recorded on a Hitachi F-3010 spectrofluorimeter under the control of a Pentium-based PC running the SpectraCalc software package. Excitation was provided by a 150 W Xe lamp (Ushio Inc.) operating at a current of 5 A. All spectra were normalized for excitation intensity via a rhodamine quantum counter, and emission spectra were normalized by the manufacturer-supplied correction curves. Spectra were routinely acquired at 25° C., maintained by a circulating water bath in 1 cm×1 cm quartz cuvettes using 3 nm slit widths and a 240 nm/min scan speed. Fluorescence emission measurements were also acquired in a 1 cm×1 cm quartz cell using a Spex Fluorolog-2 instrument with 1 nm bandwidth slits. All spectra were corrected for emission intensity using the manufacturer-supplied photomultiplier curves. Spectra were routinely acquired at 25° C., maintained by a circulating water bath.
# as §1
# [7] = system: intracellular Zn^2+ in COS-7 cells; assay: Detection of intracellular Zn^2+ by fluorescence microscopy; assay type: cell-based
# Protocol: (§6) The ability of a fluorescein-based ligand of Formula 16 to act as a sensor for intracellular Zn^2+ was tested in COS-7 (FIG. 5) and HeLa cells (FIG. 6), using a Formula 16. Both cell types were treated with 5 μM of the fluorescein-based ligand of Formula 16 for one hour at 37° C. […] Similar observations have been made using quinoline-based Zn^2+ probes in undifferentiated mammalian cells.
# (§7) Intracellular Zn^2+ concentrations were increased by incubating the cells with Zn^2+ in the presence of pyrithione, a Zn^2+ ionophore. […] Available Zn^2+ was decreased by treatment with the membrane permeable Zn^2+-chelator, TPEN.
# [8] = system: intracellular Zn^2+ in HeLa cells; assay: as above; assay type: cell-based
# Protocol: as §6, §7
# [9] = Lactone formation under aqueous conditions; assay type: physicochemical; details: even at high [Zn^2+] (200 μM)
# Protocol: Binding of the first Zn^2+ more efficiently interrupts the PET process and increases the band gap between the S0 and S1 energy levels. The Kd1 is lower than that of DPA because of the additional coordination by the phenolic oxygen. […] (200 μM). These conclusions are preliminary and are not intended to limit the scope of the invention in any way.
# [10] = Fluorescence response to Zn^2+
# Protocol: as §5, with “bath. […]” for “bath.”
# The fluorescence of the Formula 16 ligand is enhanced by protons. […]
# Under pseudo physiological conditions (50 mM PIPES, 100 mM KCl) at pH 7 in the presence of EDTA to scavenge advantageous metal ions, Formula 57 has a quantum yield of 0.06. […] The fluorescence of Formula 57 also appears to be pH dependent. These fluorescence results are preliminary and are not intended to limit the scope of the invention in any way.
# [11] = Zn^2+ affinity of reference chelator complexes; assay type: binding; details: pH 7
# Protocol: as §3
# as §4, with “nM. The measurements indicate that Formula 16 has a Kd of 0.5±0.1 nM (mean ±esd), obtained by a hyperbolic fit to the plot of the area under each fluorescence peak versus the Zn2+ concentration at which it was measured (FIG. 3, right panel).” for “nM.”
# [12] = pH 7, in the presence of EDTA (metal free)
# [13] = fit of integrated emission versus pH, 100 mM KCl
smiles,measurement,setting,value
O=C1OC2(c3ccccc31)c1ccc(O)c(CN(Cc3ccccn3)Cc3ccccn3)c1Oc1c2ccc(O)c1CN(Cc1ccccn1)Cc1ccccn1 [Formula 16],quantum yield,"[1]; pH 7, in the presence of 25 μM Zn^2+",0.92
same,quantum yield,[1]; [12],0.25
same,excitation maximum,[2]; before Zn^2+ complexation,498 nm
same,ε at excitation maximum,[2]; before Zn^2+ complexation,36800 M⁻¹ cm⁻¹
same,excitation maximum,[2]; upon Zn^2+ complexation,490 nm
same,ε at excitation maximum,[2]; upon Zn^2+ complexation,44900 M⁻¹ cm⁻¹
same,increase of integrated emission on Zn^2+ binding,[3],6.0 fold
same,increase of quantum yield on Zn^2+ binding,[3],~3.7 fold
same,pH of maximum fluorescence,[4],~5.5
same,"apparent pKa,1",[4]; [13],3.9
same,"apparent pKa,2",[4]; [13],9.4
same,fluorescence at high pH,[4]; pH>12,almost completely quenched
same,fluorescence change at the second binding event,[5],not associated with a measurable change in fluorescence
same,change in fluorescence intensity,[6]; Ca^2+,no measurable change in intensity
same,effect on fluorescence,[6]; Cd^2+,increase in fluorescence
same,effect on fluorescence,[6]; Co^2+,quench fluorescence
same,effect on fluorescence,[6]; Cu^2+,quench fluorescence
same,effect on fluorescence,[6]; Fe^2+,quench fluorescence
same,change in fluorescence intensity,[6]; Mg^2+,no measurable change in intensity
same,effect on fluorescence,[6]; Mn^2+,quench fluorescence
same,effect on fluorescence,[6]; Ni^2+,quench fluorescence
same,fluorescent staining of cells,"[7]; 5 μM ligand, one hour at 37° C., particularly perinuclear region (Golgi)",bright fluorescent staining
same,fluorescent signal after Zn^2+ chelation,[7]; TPEN,decreased the fluorescent signal
same,fluorescent signal after raising intracellular Zn^2+,[7]; Zn^2+ with pyrithione,increase in the fluorescent signal
same,fluorescent staining of cells,"[8]; 5 μM ligand, one hour at 37° C.",bright fluorescent staining
same,fluorescent signal after Zn^2+ chelation,[8]; TPEN,decreased the fluorescent signal
same,fluorescent signal after raising intracellular Zn^2+,[8]; Zn^2+ with pyrithione,increase in the fluorescent signal
same,lactone formation,[9],no lactone formation
same,selectivity of the fluorescence response,[10]; compared with other metal ions,Zn^2+ selective
same,Zn^2+-induced fluorescent enhancement,[10]; pH 12,over 200 fold
O=C1OC2(c3ccccc31)c1cc(Cl)c(O)c(CN(Cc3ccccn3)Cc3ccccn3)c1Oc1c2cc(Cl)c(O)c1CN(Cc1ccccn1)Cc1ccccn1 [Formula 31],quantum yield,[1]; [12],0.39
same,quantum yield,"[1]; pH 7, in the presence of Zn^2+ (concentration not given)",0.87
same,excitation maximum,[2]; upon Zn^2+ complexation,507 nm
same,ε at excitation maximum,[2]; upon Zn^2+ complexation,84000 M⁻¹ cm⁻¹
[Zn+2].c1ccc(CNCc2ccccn2)nc1 [[Zn(DPA)]^2+],weaker binding than the ligand of Formula 16,[11],approximately 2 orders of magnitude

# Source: patent publication US7160732B2, “Fluorescein-based metal sensors, and methods of making and using the same” (Massachusetts Institute of Technology, priority 2000, dated 2007)
